Experiments:
[1] = test system: S. cerevisiae expressing mL9.3 or mL9.5 surface-tethered; experiment: Confocal imaging of yeast with surface-tethered FAPs; assay type: cell-based; conditions: 100 nM fluorogen, excitation 641 nm, emission 794/160
Text: Plasmids pPNL6-mL9.3 and pPNL6-mL9.5 for yeast cell surface display were produced by PCR amplification of mL9.3 (SEQ. ID. NO. 23) and mL9.5 (SEQ. ID. NO. 24) from pPNL6-dL9.2 and pPNL6-dL9.5, respectively, using primers pCTCON2F (CGACGATTGAAGGTAGATACCCATACGACGTTCCAGACTACGCTCTGCAG) (SEQ. ID. NO. 29) and p6 mL9XRv (TCTCGATGCGGCCGCTTAAGACAAAACAGTAACTTTAGTACCACC) (SEQ. ID. NO. 30). Amplicons were digested with NheI and NotI prior to ligation into a like-digested pPNL6 vector backbone. Ligated plasmids were transformed into E. coli (NEB 10β) by heat-shock, and plasmids from single colonies were sequenced to verify identity. Upon verification, purified stocks of each plasmid were introduced into S. cerevisiae strain JAR200 via electroporation. Transformed cells were induced in the manner described in Szent-Gyorgyi, et al. 2008 for 96 hours prior to imaging. Cells were adhered to concanavalin A-coated glass-bottom dishes (MatTek Corporation) for 10 minutes at room temperature. […] Images of fluorescence (FIG. 12, NIR:794/160) were obtained by excitation with a 641 nm laser, and emission was collected through a 794/160 bandpass filter (Semrock) by an iXon3 EMCCD (DU897 BV). […]

[2] = test system: HEK293 cells expressing dL9.5; experiment: Confocal imaging of HEK293 cells expressing dL9.5 in various cellular contexts; assay type: cell-based; conditions: HEK293; SKC728 100 nM, SKC602 50 nM
Text: The expressed construct was imaged using an Andor Revolution XD spinning disk confocal (GFP 488:525/50, dL9.5 (SEQ. ID. NO. 3) 640:685/70 AND 640:794/160, 60×1.49 NA oil immersion objective) and the results are shown in FIG. 5. […] The fluorogen was not washed away prior to imaging.
Imaging conditions were similar to those described for obtaining FIG. 5.
CYTOPLASM. HEK293 cells were transfected with, and stably expressing the pCYdL9.5eGFP vector, were thawed from a cryostock and maintained in DMEM/10% FBS for four passages prior to fluorescence imaging procedures. Immediately prior to imaging, growth media was exchanged for HBSS (pH 7.4) supplemented with SKC602 (200 nM final concentration). The cells were allowed to recover at 37° C. with 5% CO2 for 20-30 minutes, and fluoromodule activity under in vivo conditions within the cytoplasm was imaged using an Andor Revolution XD spinning disk confocal microscope (60×1.49 NA oil immersion objective, excitation at 640 nm, emission in far-red: 685/70 filter, and NIR: 794/160 filter). The same cells were also imaged for eGFP activity (excitation at 488 nm, emission via 525/50 nm filter). […] In accordance with the fluoromodule emission spectrum shown in FIG. 2, this emission filter allows the microscope camera to detect a large portion of the fluoromodule emission, and consequently, the observed signal appears brighter. One must note that intensities cannot be directly compared between channels, due to considerations non-exclusively including: differences in excitation light intensities, exposure and capture times, the transmission profile of each emission filter, and the quantum efficiency of the iXON3 DU897 (back-illuminated) camera across the range of emitted wavelengths. An evenly distributed fluorescence signal is observed in these cells, with no bright foci that would indicate protein aggregation, and the fluoromodule signal intensity scales with that of eGFP.
PLASMA MEMBRANE. […]

Row | SMILES | NIR fluorescence of fluorogen alone in non-expressing yeast [1] | Membrane permeance shown by subcellular labeling (plasma membrane exterior / mitochondrial matrix) [2]
1 | CN(C)c1ccc(/C=C/C(=C2C=CC(=[N+](C)C)C=C2)c2ccc(N(C)C)cc2)cc1 [SKC602, (E)-N-(4-(1,3-bis(4-(dimethylamino)phenyl)allylidene)cyclohexa-2,5-dien-1-ylidene)-N-methylmethanaminium] | do not cause NIR fluorescence in the absence of cognate FAP | membrane permeant
2 | CN(C)c1ccc(C(/C=C/c2ccc(N(C)CCCCC(=O)NC(CCS(=O)(=O)O)C(=O)O)cc2)=C2C=CC(=[N+](C)C)C=C2)cc1 (stereo not shown) [SKC728] | do not cause NIR fluorescence in the absence of cognate FAP | membrane impermeant
